The text below walks through data of BindingDB's records for doi:10.1021/jm701311r (Georgia Institute of Technology, 2008).

Each structure is given as a SMILES string.

Assay in all cases: AE Enzyme Inhibition Assay
The target in assay [1] is T1, Legumain (Ixodes ricinus, UniProt Q6PRC7).
T1 sequence (Q6PRC7 whole entry): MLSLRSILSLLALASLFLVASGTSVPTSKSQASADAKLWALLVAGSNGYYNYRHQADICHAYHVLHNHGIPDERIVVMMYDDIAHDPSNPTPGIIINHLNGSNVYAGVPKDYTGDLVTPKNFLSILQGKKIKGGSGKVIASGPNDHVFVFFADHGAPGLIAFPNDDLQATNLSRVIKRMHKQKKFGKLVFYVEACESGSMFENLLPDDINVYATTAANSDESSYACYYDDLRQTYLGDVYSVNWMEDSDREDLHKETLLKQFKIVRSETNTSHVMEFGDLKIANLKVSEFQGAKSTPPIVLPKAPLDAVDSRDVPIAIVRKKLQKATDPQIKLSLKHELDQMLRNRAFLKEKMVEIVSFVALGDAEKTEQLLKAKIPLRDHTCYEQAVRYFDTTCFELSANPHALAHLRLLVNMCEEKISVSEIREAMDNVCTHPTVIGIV
The following applies: 25 °C. The protocol: (§1) AE activity in the induction medium was measured with the substrate Cbz-Ala-Ala-Asn-AMC. In a black 96-well microtiter plate, aza-peptidyl inhibitors were added to the reaction buffer containing the activated enzyme, and allowed to incubate at room temperature for 20 min. Then, substrate Cbz- Ala-Ala-Asn-AMC was added and the reaction allowed proceeding for 20 min. Plotting the relative fluorescence units (RFU)/min against the inhibitor concentration (uM) permitted calculation of the IC50 value.

The target of assay [2] is T2, Clan CD, family C13, asparaginyl endopeptidase-like cysteine peptidase (Trichomonas vaginalis (strain ATCC PRA-98 / G3), UniProt A2DYT2).
T2 sequence (A2DYT2 whole entry): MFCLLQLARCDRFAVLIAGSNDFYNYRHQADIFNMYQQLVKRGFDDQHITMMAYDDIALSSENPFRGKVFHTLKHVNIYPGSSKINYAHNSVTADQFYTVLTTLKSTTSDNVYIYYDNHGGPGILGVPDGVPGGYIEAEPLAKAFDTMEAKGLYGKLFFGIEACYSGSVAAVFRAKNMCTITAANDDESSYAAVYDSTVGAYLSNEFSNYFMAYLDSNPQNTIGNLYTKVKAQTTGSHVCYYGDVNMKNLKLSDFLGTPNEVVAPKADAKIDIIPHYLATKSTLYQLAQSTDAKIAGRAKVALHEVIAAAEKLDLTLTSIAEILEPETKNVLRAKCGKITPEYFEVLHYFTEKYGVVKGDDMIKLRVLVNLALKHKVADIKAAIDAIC
The protocol:
as §1

Assay [3] concerns the target T3, Legumain (Schistosoma mansoni, UniProt Q9NFY9).
T3 sequence (Q9NFY9 whole entry): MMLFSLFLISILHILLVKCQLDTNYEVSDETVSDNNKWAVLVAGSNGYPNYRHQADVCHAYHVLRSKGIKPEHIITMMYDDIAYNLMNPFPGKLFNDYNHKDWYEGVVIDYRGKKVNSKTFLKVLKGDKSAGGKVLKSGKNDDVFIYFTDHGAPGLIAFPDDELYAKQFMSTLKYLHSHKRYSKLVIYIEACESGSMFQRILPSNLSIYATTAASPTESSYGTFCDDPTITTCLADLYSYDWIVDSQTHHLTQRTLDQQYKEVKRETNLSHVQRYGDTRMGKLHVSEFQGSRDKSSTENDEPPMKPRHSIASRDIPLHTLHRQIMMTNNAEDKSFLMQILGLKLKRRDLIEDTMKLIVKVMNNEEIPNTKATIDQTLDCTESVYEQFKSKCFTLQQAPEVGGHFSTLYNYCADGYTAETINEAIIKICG
The protocol:
as §1

Consider `C[C@H](NC(=O)OCc1ccccc1)C(=O)N[C@@H](C)C(=O)NN(CC(N)=O)C(=O)C=CC(=O)OCc1ccccc1` [benzyl (2E)-3-{N'-[(2S)-2-[(2S)-2-{[(benzyloxy)carbonyl]amino}propanamido]propanoyl]-N-(carbamoylmethyl)hydrazinecarbonyl}prop-2-enoate], for which the IC50 was less than 0.001 µM against Legumain [1] and 0.005 µM in assay [2] (pH 6.8, 22 °C).
In the case of `CC=CC=CC(=O)N(CC(N)=O)NC(=O)[C@H](C)NC(=O)[C@H](C)NC(=O)OCc1ccccc1` [benzyl N-[(1S)-1-{[(1S)-1-[N'-(carbamoylmethyl)-N'-(2E,4E)-hexa-2,4-dienoylhydrazinecarbonyl]ethyl]carbamoyl}ethyl]carbamate], the IC50 in assay [2] (25 °C) worked out at 8 µM.
Take `CCCCN(CCCC)C(=O)C=CC(=O)N(CC(N)=O)NC(=O)[C@H](C)NC(=O)[C@H](C)NC(=O)OCc1ccccc1` [benzyl N-[(1S)-1-{[(1S)-1-[N'-(carbamoylmethyl)-N'-[(2E)-3-(dibutylcarbamoyl)prop-2-enoyl]hydrazinecarbonyl]ethyl]carbamoyl}ethyl]carbamate]: the IC50 stood at 0.55 µM at Legumain [3] (pH 6.8, 22 °C); 0.1 µM against Legumain [1]; 1 µM in assay [2] (pH 6.8, 22 °C).
`CCN(CC)C(=O)C=CC(=O)N(CC(N)=O)NC(=O)[C@H](C)NC(=O)[C@H](C)NC(=O)OCc1ccccc1` [benzyl N-[(1S)-1-{[(1S)-1-[N'-(carbamoylmethyl)-N'-[(2E)-3-(diethylcarbamoyl)prop-2-enoyl]hydrazinecarbonyl]ethyl]carbamoyl}ethyl]carbamate]: the IC50 was determined as 2.7 µM against Legumain [1] and 2 µM in assay [2] (pH 6.8, 22 °C).
In the case of `C[C@H](NC(=O)OCc1ccccc1)C(=O)N[C@@H](C)C(=O)NN(CC(N)=O)C(=O)C=Cc1ccco1` [benzyl N-[(1S)-1-{[(1S)-1-[N'-(carbamoylmethyl)-N'-[(2E)-3-(furan-2-yl)prop-2-enoyl]hydrazinecarbonyl]ethyl]carbamoyl}ethyl]carbamate], the IC50 on Legumain [3] (pH 6.8, 22 °C) is more than 2 µM; against Legumain [1], 7.5 µM.
`C[C@H](NC(=O)OCc1ccccc1)C(=O)N[C@@H](C)C(=O)NN(CC(N)=O)C(=O)C=CC(=O)N1CCc2ccccc21` [benzyl N-[(1S)-1-{[(1S)-1-[N'-(carbamoylmethyl)-N'-[(2E)-4-(2,3-dihydro-1H-indol-1-yl)-4-oxobut-2-enoyl]hydrazinecarbonyl]ethyl]carbamoyl}ethyl]carbamate]: the IC50 on Legumain [3] (25 °C) came out at 0.07 µM; against Legumain [1], 0.018 µM; in assay [2] (25 °C), 0.05 µM.
The matching figures for `C[C@H](NC(=O)OCc1ccccc1)C(=O)N[C@@H](C)C(=O)NN(CC(N)=O)C(=O)C=CC(=O)N1Cc2ccccc2C1` [benzyl N-[(1S)-1-{[(1S)-1-[N'-(carbamoylmethyl)-N'-[(2E)-4-(2,3-dihydro-1H-isoindol-2-yl)-4-oxobut-2-enoyl]hydrazinecarbonyl]ethyl]carbamoyl}ethyl]carbamate]: 0.3 µM, 0.0045 µM and 0.02 µM.
As for `C[C@H](NC(=O)OCc1ccccc1)C(=O)N[C@@H](C)C(=O)NN(CC(N)=O)C(=O)C=CC(=O)N(Cc1ccco1)Cc1ccco1` [benzyl N-[(1S)-1-{[(1S)-1-{N'-[(2E)-3-[bis(furan-2-ylmethyl)carbamoyl]prop-2-enoyl]-N'-(carbamoylmethyl)hydrazinecarbonyl}ethyl]carbamoyl}ethyl]carbamate], the results for the IC50 (against Legumain [3] (25 °C); against Legumain [1]; in assay [2] (25 °C)) were 0.9 µM, 15 µM and 5 µM, respectively.
For the compound `C[C@H](NC(=O)OCc1ccccc1)C(=O)N[C@@H](C)C(=O)NN(CC(N)=O)C(=O)C=CC(=O)NCCc1ccccc1` [benzyl N-[(1S)-1-{[(2S)-1-[(2E)-3-[N-(carbamoylmethyl)hydrazido]-N-(2-phenylethyl)prop-2-enamide]-1-oxopropan-2-yl]carbamoyl}ethyl]carbamate], the IC50 against Legumain [3] (pH 6.8, 22 °C) was 0.6 µM; on Legumain [1] it was 0.35 µM; in assay [2] (pH 6.8, 22 °C) it was 0.01 µM.
Regarding `C[C@H](NC(=O)OCc1ccccc1)C(=O)N[C@@H](C)C(=O)NN(CC(N)=O)C(=O)C=CC(=O)NCc1ccc(F)cc1` [benzyl N-[(1S)-1-{[(2S)-1-[(2E)-3-[N-(carbamoylmethyl)hydrazido]-N-[(4-fluorophenyl)methyl]prop-2-enamide]-1-oxopropan-2-yl]carbamoyl}ethyl]carbamate], the IC50 on Legumain [3] (pH 6.8, 22 °C) is 0.8 µM; against Legumain [1] it was 0.25 µM; in assay [2] (pH 6.8, 22 °C), 0.075 µM.
As to `C[C@H](NC(=O)OCc1ccccc1)C(=O)N[C@@H](C)C(=O)NN(CC(N)=O)C(=O)C=CC(=O)N(C)CCc1ccccc1` [benzyl N-[(1S)-1-{[(2S)-1-[(2E)-3-[N-(carbamoylmethyl)hydrazido]-N-methyl-N-(2-phenylethyl)prop-2-enamide]-1-oxopropan-2-yl]carbamoyl}ethyl]carbamate], the IC50 at Legumain [3] (pH 6.8, 22 °C) is 0.6 µM; in assay [2] (25 °C) it was 0.05 µM.
For the compound `C[C@H](NC(=O)OCc1ccccc1)C(=O)N[C@@H](C)C(=O)NN(CC(N)=O)C(=O)C=CC(=O)N(C)Cc1cccc2ccccc12` [benzyl N-[(1S)-1-{[(2S)-1-[(2E)-3-[N-(carbamoylmethyl)hydrazido]-N-methyl-N-(naphthalen-1-ylmethyl)prop-2-enamide]-1-oxopropan-2-yl]carbamoyl}ethyl]carbamate], the IC50 at Legumain [3] (pH 6.8, 22 °C) is 0.035 µM; against Legumain [1] it was 0.0055 µM; in assay [2] (25 °C) it was less than 0.001 µM.
As to `C[C@H](NC(=O)OCc1ccccc1)C(=O)N[C@@H](C)C(=O)NN(CC(N)=O)C(=O)C=CC(=O)N(C)c1ccccc1` [benzyl N-[(1S)-1-{[(2S)-1-[(2E)-3-[N-(carbamoylmethyl)hydrazido]-N-methyl-N-phenylprop-2-enamide]-1-oxopropan-2-yl]carbamoyl}ethyl]carbamate], the IC50 on Legumain [3] (pH 6.8, 22 °C) was determined as 0.06 µM; on Legumain [1], 0.0018 µM; in assay [2] (pH 6.8, 22 °C) it was 0.005 µM.
As to `C[C@H](NC(=O)OCc1ccccc1)C(=O)N[C@@H](C)C(=O)NN(CC(N)=O)C(=O)C=CC(=O)N(C)C(Cc1ccccc1)C(=O)N(C)CCc1ccccc1` (stereo partly drawn) [benzyl N-[(1S)-1-{[(2S)-1-[(2E)-3-[N-(carbamoylmethyl)hydrazido]-N-methyl-N-{1-[methyl(2-phenylethyl)carbamoyl]-2-phenylethyl}prop-2-enamide]-1-oxopropan-2-yl]carbamoyl}ethyl]carbamate], the IC50 is 0.75 µM on Legumain [3] (25 °C), 0.3 µM at Legumain [1] and 0.08 µM in assay [2] (25 °C).
In the case of `C[C@H](NC(=O)OCc1ccccc1)C(=O)N[C@@H](C)C(=O)NN(CC(N)=O)C(=O)C=CC(=O)N1CCCCC1` [benzyl N-[(1S)-1-{[(2S)-1-[(2E)-N-(carbamoylmethyl)-4-oxo-4-(piperidin-1-yl)but-2-enehydrazido]-1-oxopropan-2-yl]carbamoyl}ethyl]carbamate], the IC50 against Legumain [3] (pH 6.8, 22 °C) was found to be 1 µM; in assay [2] (pH 6.8, 22 °C), 0.5 µM.
On to `C[C@H](NC(=O)OCc1ccccc1)C(=O)N[C@@H](C)C(=O)NN(CC(N)=O)C(=O)C=CC(=O)c1ccccc1` [benzyl N-[(1S)-1-{[(2S)-1-[(2E)-N-(carbamoylmethyl)-4-oxo-4-phenylbut-2-enehydrazido]-1-oxopropan-2-yl]carbamoyl}ethyl]carbamate], for which the IC50 against Legumain [1] was more than 20 µM; in assay [2] (25 °C), 10 µM.
As to `C[C@H](NC(=O)OCc1ccccc1)C(=O)N[C@@H](C)C(=O)NN(CC(N)=O)C(=O)C=CC(=O)N(C)Cc1ccccc1` [benzyl N-[(1S)-1-{[(2S)-1-[(2E)-N-benzyl-3-[N-(carbamoylmethyl)hydrazido]-N-methylprop-2-enamide]-1-oxopropan-2-yl]carbamoyl}ethyl]carbamate], the figures for the concentration for half-maximal inhibition (IC50) (at Legumain [1]; in assay [2] (25 °C)) were less than 0.001 µM and 0.00055 µM, respectively.
In the case of `CCOC(=O)C=CC(=O)N(CC(N)=O)NC(=O)[C@H](C)NC(=O)[C@H](C)NC(=O)OCc1ccccc1` [ethyl (2E)-4-[(2S)-2-[(2S)-2-{[(benzyloxy)carbonyl]amino}propanamido]-N'-(carbamoylmethyl)propanehydrazido]-4-oxobut-2-enoate], the IC50 came out at 0.0045 µM against Legumain [1] and 0.0045 µM in assay [2] (pH 6.8, 22 °C).
